Data from patent publication US20040191115A1 (priority 2003, published 2004).
Values joined by “and” are separate entries in the source; they are usually repeats but may differ in a detail not shown here. Equal entries are not always repeated. Where two headings read alike, the source gives them in different places.

Test system: bacillus atrophaeus spores
Settings: 2.59 percent H2O2, slow speed, without cartons; for average count of colony forming units for the time period / log of average count for the time period: mean of samples
Description: Studies were conducted to determine the microbial eradication on mandrels 34 that were subjected to vaporized sterilant introduced at the heaters 40. […] The efficacy of the mandrel sterilization was studied for both the mandrel caps 35 and the mandrel side tubes 37 (see FIG. 3).
Each of the studies was further carried out using a testing media of bacillus atrophaeus spores for inoculating the mandrels. The mandrels were inoculated by spraying, using an aerating spray bottle having a solution with a concentration of about 7 log bacillus spores. The mandrels were then allowed to air dry. Controls were swabbed using cotton swabs to assure that the mandrels were properly inoculated. Following the machine operating period of the test, the mandrels were swabbed and the bacillus spores transferred to an agar media for incubation of the spores (at 32° C. for 48 hours) and subsequent recovery.
The data was collected by taking swab samples at the mandrel cap 35 (represented by C in the Table) and on the mandrel side tubes 37 (represented by T in the Table).

[1] = time 0 min, swab site C (mandrel cap)
[2] = time 0 min, swab site T (mandrel side tubes)
[3] = time 15 min, swab site C (mandrel cap)
[4] = time 15 min, swab site T (mandrel side tubes)
[5] = time 30 min, swab site C (mandrel cap)
[6] = time 30 min, swab site T (mandrel side tubes)
[7] = time 45 min, swab site C (mandrel cap)
[8] = time 45 min, swab site T (mandrel side tubes)
[9] = time 60 min, swab site C (mandrel cap)
[10] = time 60 min, swab site T (mandrel side tubes)

OO [hydrogen peroxide]
average count of colony forming units for the time period (time 0 min, cap): 4.82E+05 CFU/mandrel
log of average count for the time period (time 0 min, cap): 5.68 log
average count of colony forming units for the time period (time 0 min, side tubes): 6.67E+05 CFU/mandrel
log of average count for the time period (time 0 min, side tubes): 5.82 log
Average CFU/mL [1]: 1.19E+05 CFU/mL and 1.23E+05 CFU/mL
Average CFU/mandrel [1]: 4.74E+05 CFU/mandrel and 4.90E+05 CFU/mandrel
Log (of Average CFU/mandrel) [1]: 5.68 Log and 5.69 Log
Result 1 CFU/mL [1]: 1.24E+05 CFU/mL and 1.19E+05 CFU/mL
Result #2 CFU/mL [1]: 1.13E+05 CFU/mL and 1.26E+05 CFU/mL
Log (of Average CFU/mandrel) [2]: 5.95 Log and 5.65 Log
Result #2 CFU/mL [2]: 2.09E+05 CFU/mL and 1.17E+05 CFU/mL
average count of colony forming units for the time period (time 15 min, cap): 3.47E+05 CFU/mandrel
log of average count for the time period (time 15 min, cap): 5.54 log
average count of colony forming units for the time period (time 15 min, side tubes): 4.02E+05 CFU/mandrel
log of average count for the time period (time 15 min, side tubes): 5.60 log
Average CFU/mandrel [3]: 2.62E+05 CFU/mandrel and 4.32E+05 CFU/mandrel
Log (of Average CFU/mandrel) [3]: 5.42 Log and 5.64 Log
Average CFU/mL [4]: 1.01E+05 CFU/mL and 1.00E+05 CFU/mL
Average CFU/mandrel [4]: 4.04E+05 CFU/mandrel and 4.00E+05 CFU/mandrel
Log (of Average CFU/mandrel) [4]: 5.61 Log and 5.60 Log
Result 1 CFU/mL [4]: 1.03E+05 CFU/mL and 1.06E+05 CFU/mL
Result #2 CFU/mL [4]: 9.90E+04 CFU/mL and 9.40E+04 CFU/mL
Log Red. (Avg) (time 15 min relative to time zero, cap): 0.14 Log
Log Red. (Avg) (time 15 min relative to time zero, side tubes): 0.22 Log
average count of colony forming units for the time period (time 30 min, cap): 3.82E+05 CFU/mandrel
log of average count for the time period (time 30 min, cap): 5.58 log
average count of colony forming units for the time period (time 30 min, side tubes): 4.34E+05 CFU/mandrel
log of average count for the time period (time 30 min, side tubes): 5.64 log
Average CFU/mandrel [5]: 2.66E+05 CFU/mandrel and 4.98E+05 CFU/mandrel
Log (of Average CFU/mandrel) [5]: 5.42 Log and 5.70 Log
Average CFU/mandrel [6]: 4.74E+05 CFU/mandrel and 3.94E+05 CFU/mandrel
Log (of Average CFU/mandrel) [6]: 5.68 Log and 5.60 Log
Result #2 CFU/mL [6]: 1.15E+05 CFU/mL and 1.08E+05 CFU/mL
Log Red. (Avg) (time 30 min relative to time zero, cap): 0.10 Log
Log Red. (Avg) (time 30 min relative to time zero, side tubes): 0.19 Log
average count of colony forming units for the time period (time 45 min, cap): 6.31E+05 CFU/mandrel
log of average count for the time period (time 45 min, cap): 5.80 log
average count of colony forming units for the time period (time 45 min, side tubes): 8.04E+05 CFU/mandrel
log of average count for the time period (time 45 min, side tubes): 5.91 log
Average CFU/mL [7]: 1.43E+05 CFU/mL and 1.73E+05 CFU/mL
Average CFU/mandrel [7]: 5.72E+05 CFU/mandrel and 6.90E+05 CFU/mandrel
Log (of Average CFU/mandrel) [7]: 5.76 Log and 5.84 Log
Result 1 CFU/mL [7]: 1.51E+05 CFU/mL and 1.64E+05 CFU/mL
Result #2 CFU/mL [7]: 1.35E+05 CFU/mL and 1.81E+05 CFU/mL
Average CFU/mL [8]: 1.51E+05 CFU/mL and 2.52E+05 CFU/mL
Log (of Average CFU/mandrel) [8]: 5.78 Log and 6.00 Log
Result 1 CFU/mL [8]: 1.67E+05 CFU/mL and 2.49E+05 CFU/mL
Result #2 CFU/mL [8]: 1.34E+05 CFU/mL and 2.54E+05 CFU/mL
Log Red. (Avg) (time 45 min relative to time zero, cap): −0.12 Log
Log Red. (Avg) (time 45 min relative to time zero, side tubes): −0.08 Log
average count of colony forming units for the time period (time 60 min, cap): 3.24E+05 CFU/mandrel
log of average count for the time period (time 60 min, cap): 5.51 log
average count of colony forming units for the time period (time 60 min, side tubes): 6.01E+05 CFU/mandrel
log of average count for the time period (time 60 min, side tubes): 5.78 log
Average CFU/mL [9]: 7.35E+04 CFU/mL and 8.85E+04 CFU/mL
Average CFU/mandrel [9]: 2.94E+05 CFU/mandrel and 3.54E+05 CFU/mandrel
Log (of Average CFU/mandrel) [9]: 5.47 Log and 5.55 Log
Result 1 CFU/mL [9]: 6.30E+04 CFU/mL and 8.50E+04 CFU/mL
Result #2 CFU/mL [9]: 8.40E+04 CFU/mL and 9.20E+04 CFU/mL
Average CFU/mL [10]: 1.87E+05 CFU/mL and 1.14E+05 CFU/mL
Average CFU/mandrel [10]: 7.46E+05 CFU/mandrel and 4.56E+05 CFU/mandrel
Log (of Average CFU/mandrel) [10]: 5.87 Log and 5.66 Log
Result 1 CFU/mL [10]: 2.10E+05 CFU/mL and 1.20E+05 CFU/mL
Result #2 CFU/mL [10]: 1.63E+05 CFU/mL and 1.08E+05 CFU/mL
Log Red. (Avg) (time 60 min relative to time zero, cap): 0.17 Log
Log Red. (Avg) (time 60 min relative to time zero, side tubes): 0.05 Log
